Assay results: ChEMBL document CHEMBL3808385, “Synthesis, antitumor evaluation and molecular docking studies of [1,2,4]triazolo[4,3-b][1,2,4,5]tetrazine derivatives” (Bioorg Med Chem Lett, 2016)

Assays:
BeWo = assay: Cytotoxicity against human Bewo cells assessed as cell growth inhibition after 72 hrs by MTT assay; format: functional, cell-based
[1] = Cytotoxicity against human HL60 cells assessed as cell growth inhibition after 72 hrs by MTT assay; format: functional, cell-based; settings: HL-60, 72 h
MCF7 = assay: Cytotoxicity against human MCF7 cells assessed as cell growth inhibition after 72 hrs by MTT assay; format: functional, cell-based; settings: MCF7, 72 h
[2] = biological target: Hepatocyte growth factor receptor (Homo sapiens, UniProt P08581); assay: Inhibition of cMET (unknown origin) using TK substrate-biotin as substrate preincubated with compound followed by substrate addition for 40 mins measured after 1 hr by HTRF assay
Sequence of Hepatocyte growth factor receptor (P08581 whole entry): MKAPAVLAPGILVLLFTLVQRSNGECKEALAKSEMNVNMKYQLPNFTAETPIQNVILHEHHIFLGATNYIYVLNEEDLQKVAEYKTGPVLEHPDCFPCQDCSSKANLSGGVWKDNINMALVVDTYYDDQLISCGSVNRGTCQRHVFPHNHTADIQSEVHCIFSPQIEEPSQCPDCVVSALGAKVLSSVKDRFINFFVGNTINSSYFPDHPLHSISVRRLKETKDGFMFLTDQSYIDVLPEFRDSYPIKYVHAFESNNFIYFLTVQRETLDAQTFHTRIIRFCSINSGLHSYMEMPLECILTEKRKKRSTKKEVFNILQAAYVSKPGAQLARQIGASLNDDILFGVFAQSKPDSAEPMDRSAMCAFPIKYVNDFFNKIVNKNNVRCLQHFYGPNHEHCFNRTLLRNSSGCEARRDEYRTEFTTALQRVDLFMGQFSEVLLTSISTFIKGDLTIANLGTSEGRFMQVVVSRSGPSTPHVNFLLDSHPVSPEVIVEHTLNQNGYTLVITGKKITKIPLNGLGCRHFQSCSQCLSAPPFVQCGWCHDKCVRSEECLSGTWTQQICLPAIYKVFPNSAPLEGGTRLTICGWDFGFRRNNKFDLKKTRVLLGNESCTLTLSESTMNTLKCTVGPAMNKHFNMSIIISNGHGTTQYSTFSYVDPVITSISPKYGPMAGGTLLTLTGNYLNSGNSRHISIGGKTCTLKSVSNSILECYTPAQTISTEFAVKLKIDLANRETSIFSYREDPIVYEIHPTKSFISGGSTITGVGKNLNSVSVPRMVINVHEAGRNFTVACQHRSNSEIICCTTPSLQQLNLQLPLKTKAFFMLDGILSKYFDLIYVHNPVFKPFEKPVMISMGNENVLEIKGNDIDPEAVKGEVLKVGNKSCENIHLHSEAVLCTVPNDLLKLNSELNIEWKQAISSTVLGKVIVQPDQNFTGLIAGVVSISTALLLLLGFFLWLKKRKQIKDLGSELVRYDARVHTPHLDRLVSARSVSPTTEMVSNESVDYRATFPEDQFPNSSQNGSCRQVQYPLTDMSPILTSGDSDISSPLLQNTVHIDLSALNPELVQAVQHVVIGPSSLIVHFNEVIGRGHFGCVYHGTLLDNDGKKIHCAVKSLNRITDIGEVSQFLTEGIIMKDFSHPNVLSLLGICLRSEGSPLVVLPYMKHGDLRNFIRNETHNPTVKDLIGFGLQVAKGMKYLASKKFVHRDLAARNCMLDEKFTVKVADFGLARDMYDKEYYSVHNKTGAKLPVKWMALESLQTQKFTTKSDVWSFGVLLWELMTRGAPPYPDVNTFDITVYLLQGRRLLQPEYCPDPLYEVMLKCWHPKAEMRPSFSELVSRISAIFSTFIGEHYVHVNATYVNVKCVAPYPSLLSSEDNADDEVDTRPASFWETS

| SMILES | IC50 (BeWo) [µM] | IC50 [1] [µM] | IC50 (MCF7) [µM] | IC50 [2] [µM] |
| --- | --- | --- | --- | --- |
| OCC(CO)(CO)Nc1nnc2nncn2n1 | 12.4 | > 100 | > 100 | – |
| O=C(Cc1ccccc1)N1CCN(c2nnc3nncn3n2)CC1 | 2.77 | 1.85 | 3.08 | – |
| O=C(c1ccc(Cl)cc1)N1CCN(c2nnc3nncn3n2)CC1 | 7.51 | 12.3 | 12.8 | – |
| CC(C)C(=O)N1CCN(c2nnc3nncn3n2)CC1 | 1.09 | 1.61 | 1.81 | 23.7 |
| CCCC(=O)N1CCN(c2nnc3nncn3n2)CC1 | 6.73 | 9.84 | 6.91 | – |
| CN(C)c1nnc2nncn2n1 | 0.61 | 4.84 | 7.76 | – |
| CCCNc1nnc2nncn2n1 | 14.3 | 15.1 | 19.8 | – |
| c1ccc(CCNc2nnc3nncn3n2)cc1 | 2.49 | 4.15 | 1.24 | – |
| O=C(c1ccccc1)N1CCN(c2nnc3nncn3n2)CC1 | 5.87 | 4.67 | 8.38 | – |
| c1ccc(CN2CCN(c3nnc4nncn4n3)CC2)cc1 | 5.1 | 14.2 | 27.3 | – |
| CN1CCN(c2nnc3nncn3n2)CC1 | 7.99 | 8.54 | 21.6 | – |
| CCC(=O)N1CCN(c2nnc3nncn3n2)CC1 | 13.7 | 10.1 | 14.8 | – |
| c1nnc2nnc(NC3CCCC3)nn12 | 34.6 | 38.1 | 88.2 | – |
| O=C(c1ccc([N+](=O)[O-])cc1)N1CCN(c2nnc3nncn3n2)CC1 | 3.1 | 17.2 | 4.53 | – |
| OCCNc1nnc2nncn2n1 | 3.31 | 45.3 | 11.6 | – |
